Legend:
[1] = following oral administration (Gugler et al. 1975); cited from earlier work
VCAM-1 = VCAM-1 ELISA on lysates of TNF-α stimulated HUVECs; format: cell-based; conditions: Homo sapiens, HUVEC, approx. 16 hours
Description: (§1) Compounds were dissolved in DMSO, aliquoted, and stored at −20° C. Cultured human vascular endothelial cells (HUVECs) were seeded in 96-well plates in complete EGM-2 media (˜100 μL/well); cells were plated at ˜2-3×10^5/mL, and were from passage 8 to 12. Cells were incubated overnight. On the following day cells are stimulated with TNF-α (˜1 ng/mL) in the presence or absence of compounds dissolved in DMSO. Triplicate wells were used for each test. To establish a dose curve and an IC50, multiple concentrations in 2- to 5-fold increments were used. Cells were exposed to TNF-α and compounds for approximately 16 hours. The next day, cells were visually examined via light microscopy to score for visual signs of toxicity. Cell culture media was analyzed using an MCP-1 ELISA. Cells were refed (−100 μL/well) with 20% CellTiter 96. Aqueous One Cell Proliferation Solution (Promega), 80% EGM-2 medium. Media optical density (at 490 nm) was determined after 1 hour. Plates were aspirated and cell lysates were prepared and these lysates were tested using a VCAM-1 ELISA.
(§2) In Table 2, a positive result (+) was defined as at least 50% inhibition of the protein levels MCP-1 or VCAM-1, as determined by the ELISA.

MCP-1 = MCP-1 ELISA on culture media of TNF-α stimulated HUVECs; format: cell-based; conditions: Homo sapiens, HUVEC, approx. 16 hours
Description: as §1, §2

[2] = tested on: Human coronary artery smooth muscle cells (CASMCs); assay: Smooth muscle cell proliferation protocol; format: cell-based; conditions: 72 hours, read-out: % Inhibition of SMC Proliferation
Description: Compounds were dissolved in DMSO, aliquoted, and stored at −20° C. Human coronary artery smooth muscle cells (CASMCs) were plated in 96-well plates and were grown in SmBM-2 media. After 1-2 hours, media was aspirated and replaced with serum-free ME/F12 media, except the controls. Cells were incubated for a further 48 hours. Compounds were diluted in DME/F12 containing 10% FBS. Media was aspirated from the plates and compounds in DME/F12 containing 10% FBS. Six wells were used per condition and duplicate plates were used. Cells were incubated for a further 72 hours. Media was aspirated from one set of plates; those cells were refed (˜100 μL/well) with 20% CellTiter 96 Aqueous One Cell Proliferation Solution (Promega), 80% EGM-2 medium. Media optical density (at 490 nm) was determined after 3-4 hours. In the second set of plates, serum-free DME/F12 media (20 μL) was added to each well. Part of the supernatant (50 μL) was removed and placed in an ELISA plate and was stored temporarily at 4° C. The remaining media and cells in the second set of plates were freeze-thawed for four cycles. The lysates and supernatants were mixed and centrifuged. Part of the supernatant (50 μL) was removed and placed in an ELISA plate. The Promega Cytotox assay was performed on the ELISA plates. The ratio of supernatant OD to supernatant+cell lysate OD was determined.
In Table 2, a positive result (+) was defined as at least 40% inhibition of the proliferation of SMC, as determined by the assay.

Row | SMILES | melting point [°C] | intestinal absorption [1] | inhibition at 50 µM (VCAM-1) [%] | inhibition at 50 µM (MCP-1) [%] | inhibition at 50 µM [2] [%] | inhibition at 10 µM (VCAM-1; 10 uM) [%] | inhibition at 10 µM (MCP-1; 10 uM) [%] | inhibition at 10 µM ([2]; 10 uM) [%]
1 | O=c1c(O)c(-c2ccc(O)c(O)c2)oc2cc(O)cc(O)c12 [quercetin] |  | less than 1% |  |  |  |  |  | 
2 | O=c1cc(-c2ccc(O)c(Cl)c2)oc2ncccc12 [EXAMPLE 7, 2-(3-Chloro-4-hydroxyphenyl)-4H-pyrano[2,3-b]pyridine-4-one] | 259 to 262 |  | ≥ 50 | ≥ 50 | ≥ 40 |  |  | 
3 | Cn1c(-c2ccc(O)c(F)c2)cc2ncccc2c1=O [EXAMPLE 16, 7-(3-Fluoro-4-hydroxyphenyl)-6-methyl-1,6-naphthyridin-5(6H)-one] | 182 to 184 |  | < 50 | < 50 | < 40 |  |  | 
4 | O=c1cc(-c2ccc(O)nc2)oc2ccccc12 [EXAMPLE 13, 2-(6-Hydroxypyridin-3-yl)-chromen-4-one] | 296 to 297 |  | ≥ 50 | < 50 | ≥ 40 |  |  | 
5 | Cc1cc(-c2cc(=O)c3cccnc3o2)ccc1O [EXAMPLE 5, 2-(4-Hydroxy-3-methylphenyl)-4H-pyrano[2,3-b]pyridine-4-one] | 300 to 302 |  |  |  |  | < 50 | < 50 | < 40
6 | COc1ccc(-c2cc(=O)c3cccnc3o2)cc1 [EXAMPLE 9, 2-(4-Methoxyphenyl)-4H-pyrano[2,3-b]pyridine-4-one] | 269 to 270 |  | < 50 | < 50 | ≥ 40 |  |  | 
7 | Oc1ccc(-c2cc3ccccc3cn2)cc1 [EXAMPLE 15, 4-Isoquinolin-3-yl-phenol] | 218 to 219 |  | ≥ 50 | < 50 | < 40 |  |  | 
8 | O=c1cc(-c2ccc(OCCO)cc2)oc2ncccc12 [EXAMPLE 10, 2-(4-(2-Hydroxyethoxy)phenyl)-4H-pyrano[2,3-b]pyridine-4-one] | 157 to 159 |  | < 50 | < 50 | ≥ 40 |  |  | 
9 | CNc1nc(-c2ccc(O)c(F)c2)cc2c(OC)cccc12 [EXAMPLE 17, 2-Fluoro-4-(5-methoxy-1-(methylamino)isoquinolin-3-yl)phenol] | 185 to 187 |  | ≥ 50 | ≥ 50 | < 40 |  |  | 
10 | O=c1cc(-c2ccc(O)c(F)c2)oc2ncccc12 [EXAMPLE 4, 2-(3-Fluoro-4-hydroxyphenyl)pyrano[2,3-b]pyridine-4-one] | 267 to 268 |  | ≥ 50 | < 50 | < 40 |  |  | 

Second part, led by results:

Row | melting point [°C] | SMILES | intestinal absorption [1] | inhibition at 50 µM (VCAM-1) [%] | inhibition at 50 µM (MCP-1) [%] | inhibition at 50 µM [2] [%] | inhibition at 10 µM (VCAM-1; 10 uM) [%] | inhibition at 10 µM (MCP-1; 10 uM) [%] | inhibition at 10 µM ([2]; 10 uM) [%]
11 | 239 to 241 | O=c1[nH]c(-c2ccc(O)cc2)cc2ccccc12 [EXAMPLE 21, 3-(4-Hydroxyphenyl)-2H-isoquinolin-1-one] |  | ≥ 50 | ≥ 50 | ≥ 40 |  |  | 
12 | 122.8 to 124 | O=c1cc(-c2cccnc2)oc2ccccc12 [EXAMPLE 25, 2-(pyridin-3-yl)-4H-chromen-4-one] |  | < 50 | < 50 | ≥ 40 |  |  | 
13 | 295 to 297 | Cc1cc(-c2cc(=O)c3cccnc3o2)cc(C)c1O [EXAMPLE 24, 2-(4-hydroxy-3,5-dimethylphenyl)-4H-pyrano[2,3-b]pyridin-4-one] |  | ≥ 50 | ≥ 50 | ≥ 40 |  |  | 
14 | 267 to 272 | O=c1cc(-c2ccc(O)c(Br)c2)oc2ncccc12 [EXAMPLE 32, 2-(3-Bromo-4-hydroxyphenyl)-4H-pyrano[2,3-b]pyridin-4-one] |  | ≥ 50 | < 50 | ≥ 40 |  |  | 

Reference: patent US8410109B2, “Pharmaceutical compositions for the prevention and treatment of complex diseases and their delivery by insertable medical devices” (Resverlogix Corp., priority 2005, dated 2013)
